Measurements published in ChEMBL document CHEMBL1795317, “Synthesis and antitubercular evaluation of amidoalkyl dibenzofuranols and 1H-benzo[2,3]benzofuro[4,5-e][1,3]oxazin-3(2H)-ones” (Bioorg Med Chem Lett, 2011).
≈ marks a conversion by molar mass, not a printed value.

Key:
[1] = system: Mycobacterium tuberculosis; assay: Antimicrobial activity against Mycobacterium tuberculosis H37Rv ATCC 27294 after 28 days by agar dilution method; type: functional; conditions: H37Rv ATCC 27294, 672 h
[2] = Lipophilicity, log P of the compound; type: physicochemical; conditions: octanol/water

| Structure (SMILES) | MIC [1] [µg/mL] | logP [2] |
| --- | --- | --- |
| COc1cc(C(NC(N)=O)c2c(O)ccc3oc4ccccc4c23)cc(OC)c1OC (stereo not given) | 12.5 (≈ 29.6 µM) | 2.29 |
| O=C1NC(c2ccccc2)c2c(ccc3oc4ccccc4c23)O1 (stereo not given) | 3.13 (≈ 9.93 µM) | 3.61 |
| COc1cc(C(NC(=O)c2ccccc2)c2c(O)ccc3oc4ccccc4c23)cc(OC)c1OC (stereo not given) | 12.5 (≈ 25.9 µM) | 4.52 |
| COc1ccc(C2NC(=O)Oc3ccc4oc5ccccc5c4c32)cc1 (stereo not given) | 6.25 (≈ 18.1 µM) | 3.48 |
| NC(=O)NC(c1ccc(Cl)cc1)c1c(O)ccc2oc3ccccc3c12 (stereo not given) | 3.13 (≈ 8.53 µM) | 3.23 |
| CC(=O)NC(c1ccc(Br)cc1)c1c(O)ccc2oc3ccccc3c12 (stereo not given) | 6.25 (≈ 15.2 µM) | 3.83 |
| CC[C@@H](CO)NCCN[C@@H](CC)CO [ETHAMBUTOL] | 3.13 (≈ 15.3 µM) |  |
| NC(=O)NC(c1ccc(Br)cc1)c1c(O)ccc2oc3ccccc3c12 (stereo not given) | 3.13 (≈ 7.61 µM) | 3.5 |
| NC(=O)c1cnccn1 [PYRAZINAMIDE] | 50 (≈ 406 µM) |  |
| O=C(NC(c1ccc(Cl)cc1)c1c(O)ccc2oc3ccccc3c12)c1ccccc1 (stereo not given) | 12.5 (≈ 29.2 µM) | 5.46 |
| CC(=O)NC(c1ccccc1)c1c(O)ccc2oc3ccccc3c12 (stereo not given) | 6.25 (≈ 18.9 µM) | 3 |
| NNC(=O)c1ccncc1 [ISONIAZID] | 0.1 (≈ 0.729 µM) |  |
| O=C1NC(c2ccc(Cl)cc2)c2c(ccc3oc4ccccc4c23)O1 (stereo not given) | 1.56 (≈ 4.46 µM) | 4.16 |
| O=C1NC(c2ccc(Br)cc2)c2c(ccc3oc4ccccc4c23)O1 (stereo not given) | 1.56 (≈ 3.96 µM) | 4.43 |
| COc1cc(C2NC(=O)Oc3ccc4oc5ccccc5c4c32)cc(OC)c1OC (stereo not given) | 12.5 (≈ 30.8 µM) | 3.23 |
| COc1ccc(C(NC(C)=O)c2c(O)ccc3oc4ccccc4c23)cc1 (stereo not given) | 6.25 (≈ 17.3 µM) | 2.87 |
| COc1cc(C(NC(C)=O)c2c(O)ccc3oc4ccccc4c23)cc(OC)c1OC (stereo not given) | 12.5 (≈ 29.7 µM) | 2.62 |
| CC(=O)NC(c1ccc(Cl)cc1)c1c(O)ccc2oc3ccccc3c12 (stereo not given) | 6.25 (≈ 17.1 µM) | 3.56 |
| COc1ccc(C(NC(N)=O)c2c(O)ccc3oc4ccccc4c23)cc1 (stereo not given) | 6.25 (≈ 17.2 µM) | 2.55 |
